Source: PubChem BioAssay AID179 (DTP/NCI, 2004)
pEC50, pIC50: −log10 of the molar value. Values joined by “and” are separate entries in the source; they are usually repeats but may differ in a detail not shown here. Equal entries are not always repeated. Active and inactive are the calls of the source.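 The calls were made as follows: active = compounds giving half or more protection of infected cells from virus-caused growth loss, again on retest; inactive = the rest.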 Where a SMILES comes first, the peptide text is derived from it. The star is where a group is joined. Fmoc = O=C(OCC1c2ccccc2-c2ccccc21)*; Boc = CC(C)(C)OC(=O)*

Tested on: CEM cells HIV-1 protection, formazan growth assay
Experiment: NCI AIDS Antiviral Assay
Details: for pIC50: measured here: growth of uninfected CEM cells
Method in brief: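 Human CEM cells, uninfected and HIV-1-infected, exposed to five drug concentrations; growth measured by soluble formazan assay and scored as percent protection from infection, with protecting compounds retested.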

Row | Structure (SMILES) | pEC50 | pIC50 | outcome
1 | COc1cc(Nc2cc(Cl)cc(Cl)c2)nc(N)n1 | < 3.70 | 4.56 | 
2 | O=C(O)c1ccccc1O | < 2.74 | 3.16 | inactive
3 | CCCCCCCCOP(=O)(/C=C/c1ccccc1)OCCCCCCCC | < 5.18 | < 5.18 | 
4 | CN(C)CCn1c(=O)c2ccc(NCCN3CCNCC3)c3c(=O)c4ccccc4n(c1=O)c23 | < 3.70 | 7.20 | 
5 | COc1ccc2c(c1)CCC1=C2C=C[P+]1(C)C |  |  | inactive
6 | Cc1cn(C2CC(OC(c3ccccc3)(c3ccccc3)c3ccccc3)C(CO)O2)c(=O)[nH]c1=O (configuration not stated) | < 3.70 | 4.98 | 
7 | O=C1C=C(C2=C(C3=CC(=O)c4ccccc4C3=O)C(=O)c3ccccc3C2=O)C(=O)c2ccccc21 | < 4.00 | 5.86 | 
8 | CCS(=O)c1c2cc(OC)ccc2nc2ccc(OC)cc12 (configuration not stated) | < 3.70 | 5.86 | 
9 | CC(=O)Nc1ccc(S(=O)(=O)NNC(=O)NNS(=O)(=O)c2ccc(NC(C)=O)cc2)cc1 | < 5.13 | < 5.13 | 
10 | Cc1nc2ccc(Cl)cc2c2c1CCS2 | < 3.70 | 3.93 | 
11 | COC(=O)C(Cc1ccccc1)NC(=O)C(CS)NC(=O)OC(C)(C)C (stereo not drawn) (Boc-Cys-Phe-OMe; configuration not given here) | < 3.70 | 5.02 | 
12 | Cc1ccc(OC2CC(n3cnc4c(=O)[nH]c(Br)nc43)OC2Oc2ccc(C)cc2)cc1 (configuration not stated) | < 3.70 | 4.60 | 
13 | Oc1[nH]c2ccccc2c1N=NC1=NCCCCN1 | < 3.70 | < 3.70 | 
14 | O=C1CN=C(c2ccccn2)c2cc(Cl)ccc2N1CCO | < 3.10 | 3.33 | 
15 | OC12c3ccccc3C1CCCCC2N1CCCC1 (configuration not stated) | < 3.70 | < 3.70 | 
16 | CCC[CH2][Sn]([CH2]CCC)([O]C(=O)/C=C/c1ccccc1F)[O]C(=O)/C=C/c1ccccc1F | < 5.03 | < 5.03 | 
17 | C[n+]1c(-c2ccc(/C=N/NC(=O)C(=O)N/N=C/c3ccc(-c4cn5ccccc5[n+]4C)cc3)cc2)cn2ccccc21 | 4.25 and < 3.70 | 4.13 and < 3.70 | 
18 | COc1cccc(-c2nc(-c3cnccn3)n(Cc3ccccc3)n2)c1 | < 3.70 | < 3.70 | 
19 | C=C1C(OC(=O)CC(c2ccccc2)N(C)C)C[C@H](OC(C)=O)[C@]2(C)C1C(O)[C@@H]1CC(OC(C)=O)C(C)=C([C@@H](OC(C)=O)C2OC(C)=O)C1(C)C (some centres not stated) |  |  | inactive
20 | CCOC(=O)n1c2ccccc2c2c(O)c(OC)c3c(c21)C(=O)NC3=O | < 3.70 | 4.52 | 
21 | Cc1csc(CP(=O)(OC(C)C)OC(C)C)n1 | < 3.70 | < 3.70 | 
22 | O=[N+]([O-])c1ccc(Sc2c3ccccc3nc3ccccc23)nc1 | < 3.70 | 5.28 | 

Row | Structure (SMILES) | pEC50 | pIC50 | outcome
23 | OC(C#CCN1CCCC1)(c1ccccc1)c1ccccc1Cl (configuration not stated) | < 3.70 | 4.15 | 
24 | COc1cc(N/N=C/C#N)cc(OC)c1OC | < 4.34 | 5.65 | 
25 | S=C1Cc2[nH]c(=S)sc(=S)c2C(=S)N1 | < 4.19 | 4.24 | 
26 | O=[N+]([O-])c1ccc(Cl)c(SSc2cc([N+](=O)[O-])ccc2Cl)c1 | < 4.40 | 4.85 | 
27 | CC(C)(C)OC(=O)NCCCCC(NC(=O)C(Cc1c[nH]c2ccccc12)NC(=O)OCC1c2ccccc2-c2ccccc21)C(=O)O (configuration not stated) (Fmoc-Trp-Lys(Boc)-OH; configuration not given here) | < 3.70 | 3.99 | 
28 | COc1ccc(OC)c2c1C1CCC(=O)N1CN2C(C)=O (configuration not stated) |  |  | inactive
29 | O/N=C1\CC(c2ccccc2)Oc2ccccc21 (configuration not stated) | < 3.70 | 3.90 | 
30 | Cc1ccc2[nH]c3c(c(=O)n(C)c(=O)n3C)c2c1 | < 3.70 | < 3.70 | 
31 | C[C@H](CCC(=O)O)[C@H]1CC[C@H]2[C@@H]3[C@@H](O)C[C@@H]4C[C@H](O)CC[C@]4(C)[C@H]3C[C@H](O)[C@]12C | < 3.70 | < 3.70 | 
32 | CC(C)CC(NC(=O)C(CSc1ccc([N+](=O)[O-])cc1)Cc1ccccc1)C(=O)Nc1ccccc1 (configuration not stated) | < 4.00 | < 4.00 | 
33 | CCN(CCCl)c1cc(C[N+](C)(C)[O-])cc(NC(=O)c2ccc(C(=O)Nc3cc(C[N+](C)(C)[O-])cc(N(CC)CCCl)c3)cc2)c1 | < 3.70 | 4.44 | 
34 | Cc1cccc2c1c(=O)c1c(O)cc(O)cc1n2C | < 3.70 | < 3.70 | 
35 | CC(NC(=O)C(C)NC(=O)C(N)CCP(C)(=O)O)C(=O)O (configuration not stated) |  |  | inactive
36 | O=C(CNc1ccc2c(=S)c3ccccc3[nH]c2c1)Nc1ccccc1-c1ccccc1NC(=O)CNc1ccc2c(=S)c3ccccc3[nH]c2c1 | < 4.86 | 5.35 | 
37 | CC(=O)OCC1OC(n2c(=O)n(-c3ccccc3)c(=O)c3cc(Br)cc(Br)c32)C(OC(C)=O)C(OC(C)=O)C1OC(C)=O (configuration not stated) | < 4.86 | < 4.86 | 
38 | COC/C=C\[C@@]1(O)CCCC[C@@H]1CC(OC)OC | < 3.70 | 5.91 | 
39 | CCCCCCCCCCCCCCCC[N+](C)(C)CCCS(=O)(=O)[O-] |  |  | inactive
40 | CN(/N=N/N(C)c1ccccc1)c1ccccc1 | < 3.70 | < 3.70 | 
41 | CCN(CC)C(=S)SS(=O)(=O)c1ccc([N+](=O)[O-])cc1 | < 3.70 | 4.72 | 
42 | Cc1ccc(S(=O)(=O)[C@@H](Cl)[C@H]2N=C(Cl)NN=C2c2ccccc2)cc1 | < 3.70 | 4.43 | 
43 | O=C1C(=Cc2ccccc2[N+](=O)[O-])N=C(c2ccccc2)N1n1c(-c2ccccc2)nc2ccccc2c1=O | < 3.70 | 4.53 | 
44 | Cc1cc2c(c(C=Nc3ccc(N(C)C)cc3)c1)OC1(C=C2)Oc2ccccc2C(=O)N1C (configuration not stated) | < 4.38 | 4.88 | 

Row | Structure (SMILES) | pEC50 | pIC50 | outcome
45 | CN1CCN(c2cc3nsnc3c3nsnc23)CC1 | < 3.70 | < 3.70 | 
46 | COc1cc(OC)c(C2c3cc4c(cc3OC(N3CCCC3)C2C)OCO4)c(OC)c1 (configuration not stated) | < 3.70 | 5.36 | 
47 | N/N=C1\c2ccccc2C2/C(=N\N)c3ccccc3C12 (configuration not stated) |  |  | inactive
48 | O=C1c2ccccc2C(c2ccccc2)C1c1ccccc1 (configuration not stated) | < 3.70 | 4.71 | 
49 | CCOC(=O)C1C=C1C(C)(C)O (configuration not stated) | < 3.82 | 3.87 | 
50 | CC(=O)ONC(=O)CSc1nn2cc(-c3ccccc3)nc2s1 | 3.73 | < 3.70 | 
51 | CC(=O)[C@@]12OC(C)(c3ccco3)O[C@@H]1C[C@H]1[C@@H]3CCC4=CC(=O)CC[C@]4(C)[C@H]3CC[C@@]12C (some centres not stated) | < 3.70 | 3.80 | 
52 | CC(=O)Oc1c(C)cc(-c2cc(C)c(OC(C)=O)c(C)c2)cc1C | < 3.70 | 4.26 | 
53 | CCCCCCCCCCCCCCCC(=O)OC1C(O)C(CO)OC(OC)C1NC(=O)N(CCCl)N=O (configuration not stated) | < 4.90 | < 4.90 | 
54 | COC12OC3(C4OC41)C(C(=O)O[C@H]3CO[Si](C)(C)C(C)(C)C)C2C(=O)Oc1ccccc1 (some centres not stated) | < 3.70 | < 3.70 | 
55 | NS(=O)(=O)c1nnc(NS(=O)(=O)c2ccccc2C(=O)O)s1 | < 3.70 | < 3.70 | 
56 | COc1ccc(-n2cnnc2-c2nsc3ccccc23)cc1 | < 4.07 | 4.26 | 
57 | NC(CCC(=O)NCCCC(=O)O)C(=O)O (configuration not stated) | < 4.07 | < 4.07 | 
58 | CCN(CC)C1C2=C(CCCC2)OS(=O)(=O)C1c1ccccc1 (configuration not stated) | < 4.39 | < 4.39 | 
59 | C=CCn1c(-c2ccccc2)nn(CC(=O)Nn2c(C)nc3ccccc3c2=O)c1=S |  |  | inactive
60 | O=C1/C(=C/c2ccc(Cl)cc2)CCC/C1=C\c1ccc(O)c(CN2CCCCC2)c1 | < 4.00 | 5.28 | 
61 | c1ccc(CSSCc2ccccc2)cc1 |  |  | inactive
62 | N#C/C(=C\c1cccc(Cl)c1)C(=O)c1ccccc1 | < 3.95 | 4.26 | 
63 | CN1C(=O)N(C)C(O)C1O (configuration not stated) | < 3.70 | < 3.70 | 
64 | Cc1cn(C2CC(O)C(COC(=O)CCCCCCCCCCCBr)O2)c(=O)[nH]c1=O (configuration not stated) | 4.53 | 4.29 | 
65 | O=C(O)CCSSCCCS(=O)O | 3.98 | 3.72 | 
66 | CCCC=NCCOC(=S)[S-].CCCC=NCCOC(=S)[S-].[Zn+2] | < 4.00 | 4.25 | 

Row | Structure (SMILES) | pEC50 | pIC50 | outcome
67 | NC1=CN(CCCO)C2=N/C(=C\c3ccco3)C(=O)N12 |  |  | inactive
68 | CCCN1C(=O)c2cc(=O)n(Cc3ccccc3)c(O)c2C1C (configuration not stated) | < 3.94 | < 3.94 | 
69 | Cc1ccc([N+](=O)[O-])cc1P(=O)(O)c1cc([N+](=O)[O-])ccc1C | < 3.70 | < 3.70 | 
70 | Cc1ccccc1-n1c(C)nc2ccccc2c1=O | < 3.57 | < 3.57 | 
71 | C[N+]1(CC(O)(O)C(F)F)CCOCC1 | < 3.70 | < 3.70 | 
72 | OCC1CC(F)C(n2cnc3c(NOCc4ccccc4)ncnc32)O1 (configuration not stated) | < 4.00 | < 4.00 | 
73 | O=c1nc(Nc2cccc(Cl)c2)oc2cc(Cl)oc(=O)c12 | < 4.10 | 4.94 | 
74 | c1ccc([B-]2([C+]3CCCCC3)N3CCCCC3C3CCCCN32)cc1 (configuration not stated) | < 3.70 | 5.08 | 
75 | C=C1CC2(CCS(=O)(=O)c3ccccc32)OC1=O (configuration not stated) | < 3.45 | 5.82 | 
76 | COC(=O)c1ccccc1NC(=NC1CCCCCC1)NS(=O)(=O)c1ccc(C)cc1 | < 3.70 | < 3.70 | 
77 | Clc1ccc(-c2cc[s+]s2)cc1 | < 3.70 | 4.48 | 
78 | O=C1CCC2(CC(Br)C(=O)c3ccccc32)C(=O)N1 (configuration not stated) | < 3.39 | 4.09 | 
79 | C[N+](C)(C)CC1Cc2ccccc2C1=O (configuration not stated) |  |  | inactive
80 | Fc1cccc(C=NC23CC4CC(CC(C4)C2)C3)c1 | < 4.28 | < 4.28 | 
81 | Brc1ccc(N2N=NC3CN(c4ccccc4)CC32)cc1 (configuration not stated) | < 4.00 | 4.23 | 
82 | CCCCCCCCCCC(c1cc(Cl)c(O)c(C(=O)O)c1)c1cc(Cl)c(O)c(C(=O)O)c1 | < 2.83 | 4.10 | 
83 | O=C=NCCCCCCN1C(=O)N2C(c3ccccc3)N(CCCCCCN=C=O)C(=O)N2C1c1ccccc1 (configuration not stated) |  |  | inactive
84 | C/C(Cl)=N\OC(=O)Nc1ccc(C)cc1 | < 3.70 | 4.73 | 
85 | CC(=O)OCC1OC(n2c(-c3ccccc3)c(N=Nc3ccccc3)c(C)c(C#N)c2=S)C(OC(C)=O)C(OC(C)=O)C1OC(C)=O (configuration not stated) | < 3.70 | < 3.70 | 
86 | CC1=C(C)CS(=O)(=O)N(c2ccccc2)C1 | < 3.70 | < 3.70 | 
